Experimental data from PubChem BioAssay (NCI).
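Interpolation was linear, between the two tested concentrations surrounding the appropriate level; five concentrations were tested over 48 hours in 96-well plates. TGI: concentration producing complete growth inhibition.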

Assays:
Experiment in all cases: NCI tumour cell line growth inhibition, 48 h
[1] = system: SK-MEL-2 melanoma
[2] = system: LOX IMVI melanoma
[3] = system: A498 renal
[4] = system: M14 melanoma
[5] = system: OVCAR-5 ovarian
[6] = system: RXF 393 renal
[7] = system: UACC-62 melanoma
[8] = system: SNB-19 CNS
[9] = system: UO-31 renal
[10] = system: DU-145 prostate
[11] = system: OVCAR-3 ovarian
[12] = system: T-47D breast
[13] = system: NCI-H460 lung
[14] = system: SF-268 CNS
[15] = system: TK-10 renal
[16] = system: HOP-92 NSCLC
[17] = system: BT-549 breast
[18] = system: SNB-75 CNS
[19] = system: OVCAR-4 ovarian
[20] = system: MCF7 breast

SMILES	TGI [1]	TGI [2]	TGI [3]	TGI [4]	TGI [5]	TGI [6]	TGI [7]	TGI [8]	TGI [9]	TGI [10]	TGI [11]	TGI [12]	TGI [13]	TGI [14]	TGI [15]	TGI [16]	TGI [17]	TGI [18]	TGI [19]	TGI [20]
CNc1nc(OC)c2c(n1)[n+](C)cn2C	> 100 µM	> 100 µM	> 100 µM	> 100 µM	> 100 µM	> 100 µM	> 100 µM	> 100 µM	> 100 µM	> 100 µM	> 100 µM	> 100 µM	> 100 µM	> 100 µM	> 100 µM	> 100 µM	> 100 µM	> 100 µM	–	–
COC(=O)C1=C(C)C(=O)C2(CCCCCC2C(=O)OC)C1 (configuration not stated)	> 100 µM	–	> 100 µM	> 100 µM	> 100 µM	> 100 µM	> 100 µM	> 100 µM	> 100 µM	–	–	–	> 100 µM	> 100 µM	> 100 µM	> 100 µM	–	> 100 µM	> 100 µM	–
C/C(=C\CNc1ncnc2c1ncn2CCC#N)CO	–	> 100 µM	–	> 100 µM	> 100 µM	> 100 µM	> 100 µM	> 100 µM	> 100 µM	> 100 µM	> 100 µM	> 100 µM	> 100 µM	> 100 µM	> 100 µM	> 100 µM	–	> 100 µM	> 100 µM	> 100 µM
CCCCC(C)(C/C=C/[C@@H]1[C@@H](C(O)CCCCCC(=O)OC)C(=O)C[C@H]1O[Si](C)(C)C(C)(C)C)O[Si](C)(C)C (some centres not stated)	> 100 µM	> 100 µM	–	> 100 µM	> 100 µM	> 100 µM	> 100 µM	> 100 µM	> 100 µM	> 100 µM	> 100 µM	–	> 100 µM	> 100 µM	> 100 µM	> 100 µM	> 100 µM	> 100 µM	> 100 µM	> 100 µM
CCCCN1/C(=N/Nc2n[nH]c(=O)c3ccccc23)SCC1c1ccc(Cl)cc1 (configuration not stated)	56.4 µM	–	66.2 µM	19.5 µM	61 µM	63.1 µM	20.7 µM	42 µM	93.3 µM	> 100 µM	37.6 µM	> 100 µM	24.8 µM	43.9 µM	92.7 µM	> 100 µM	–	64 µM	> 100 µM	33.2 µM
C[C@@H](c1ccccc1)N(CC#N)[C@H]1CCC[C@]1(O)/C=C/c1ccc2c(c1)OCO2	> 25 µM	> 25 µM	6.98 µM	> 25 µM	> 25 µM	> 25 µM	7.67 µM	> 25 µM	> 25 µM	> 25 µM	–	> 25 µM	> 25 µM	> 25 µM	> 25 µM	> 25 µM	–	> 25 µM	> 25 µM	11.5 µM
COC(=O)C1CCC(=S)N1C(C)=O (configuration not stated)	> 100 µM	–	> 100 µM	> 100 µM	> 100 µM	> 100 µM	> 100 µM	> 100 µM	> 100 µM	> 100 µM	> 100 µM	–	> 100 µM	> 100 µM	> 100 µM	> 100 µM	> 100 µM	> 100 µM	> 100 µM	> 100 µM
Nc1nc2c(ccc3ccccc32)[nH]1	> 10 µM	> 10 µM	> 10 µM	> 10 µM	> 10 µM	> 10 µM	> 10 µM	> 10 µM	> 10 µM	> 10 µM	> 10 µM	> 10 µM	> 10 µM	> 10 µM	> 10 µM	–	–	> 10 µM	> 10 µM	> 10 µM
CSC(=NCCCN=C(NS(=O)(=O)c1ccc(Cl)cc1)SC)NS(=O)(=O)c1ccc(Cl)cc1	43.6 µM	70.6 µM	73.1 µM	> 100 µM	> 100 µM	–	> 100 µM	> 100 µM	40.5 µM	> 100 µM	80 µM	> 100 µM	> 100 µM	> 100 µM	> 100 µM	67.9 µM	–	> 100 µM	> 100 µM	52.8 µM
CC(=O)Oc1cc(OC(C)=O)c2c(c1C)CC[C@@H]1[C@@H]2CC[C@]2(C)[C@@H](OC(C)=O)CC[C@@H]12	–	34.2 µM	34.8 µM	34.9 µM	–	27.7 µM	34.7 µM	33.3 µM	31.4 µM	61 µM	31.7 µM	–	34.1 µM	39.3 µM	35 µM	35.2 µM	34.1 µM	44 µM	–	34.1 µM
Oc1[nH]c2ccccc2c1N=Nc1nc(-c2ccccc2)cs1	> 100 µM	> 100 µM	–	> 100 µM	> 100 µM	–	–	> 100 µM	> 100 µM	> 100 µM	> 100 µM	> 100 µM	46.6 µM	–	> 100 µM	> 100 µM	–	41.3 µM	> 100 µM	> 100 µM
COc1ccc(Sc2ccccc2[N+](=O)[O-])cc1	> 100 µM	> 100 µM	> 100 µM	> 100 µM	> 100 µM	78.7 µM	> 100 µM	> 100 µM	> 100 µM	–	58.9 µM	–	> 100 µM	> 100 µM	> 100 µM	> 100 µM	–	19.7 µM	> 100 µM	–
O=C(c1ccccc1)n1c2ccc(Br)cc2c2nc3ccccc3nc21	> 100 µM	> 100 µM	–	> 100 µM	> 100 µM	> 100 µM	> 100 µM	> 100 µM	> 100 µM	> 100 µM	> 100 µM	–	> 100 µM	> 100 µM	> 100 µM	> 100 µM	> 100 µM	> 100 µM	> 100 µM	> 100 µM
